Laboratory results from patent US9873690B2, “3-indol substituted derivatives, pharmaceutical compositions and methods for use” (Pfizer Inc., priority 2015, dated 2018).

Biological target: T1, hTDO2 (Homo sapiens, UniProt P48775)
T1 construct: endogenous in cells; host or cells: A172 human brain glioblastoma cells (ATCC CRL-1620)
Assay: Cellular assay for TDO2 activity determination in A172 cells
Type: cell-based
Settings: human glioblastoma A172 cells naturally expressing hTDO2; overnight incubation; kynurenine by absorbance at 480 nm
Experimental: The compounds of formula I inhibit the activity of human TDO2 in cells that constitutively express TDO2, such as A172 cells. A172 is a cell line derived from human brain glioblastoma cells. The cells are available from the American Type Culture Collection (ATCC®) as CRL-1620™.
The assay (adapted from Pilotte L et al., Proc Natl Acad Sci USA, 2012, 109(7), 2497-502) was performed in 96-well flat bottom plates seeded with human glioblastoma A172 cells, naturally expressing hTDO2 (prepared as described in Tilman et al., Mol Cancer, 2007, 17(6), 80), at a concentration of 1.25×10^4 cells/well in a final volume of 200 μL. To determine TDO, the cells were incubated overnight at 37° C. at 5% CO2 in IMDM (Invitrogen) supplemented with 2% FBS and 2% penicillin/streptomycin in the presence of the compounds of the present invention, at different concentrations.
The plates were then centrifuged 5 min at 1000 rpm, and 100 μL of the supernatant were collected in a conical plate, 30 μL of TCA 30% were added and a further centrifuged at 3000×g for 10 minutes. 100 μL of the supernatant were collected in a flat bottomed plate and 100 μL of 2% (w/v) 4-(dimethylamino)-benzaldehyde in acetic acid and incubated for 5 min at room temperature. Kynurenine concentrations were determined by measuring the absorbance at 480 nm. A standard curve was made with pure kynurenine. The TDO activity was measured as described above using ten serial concentrations of the compounds of the present invention. Data were fitted using the Prism™ software (GraphPad Software, Inc.) using standard parameters.
The biological activity of representative compounds in human brain glioblastoma cells as determined in the above-referenced assay is summarized in the following table: […]

T1 sequence (P48775 whole entry): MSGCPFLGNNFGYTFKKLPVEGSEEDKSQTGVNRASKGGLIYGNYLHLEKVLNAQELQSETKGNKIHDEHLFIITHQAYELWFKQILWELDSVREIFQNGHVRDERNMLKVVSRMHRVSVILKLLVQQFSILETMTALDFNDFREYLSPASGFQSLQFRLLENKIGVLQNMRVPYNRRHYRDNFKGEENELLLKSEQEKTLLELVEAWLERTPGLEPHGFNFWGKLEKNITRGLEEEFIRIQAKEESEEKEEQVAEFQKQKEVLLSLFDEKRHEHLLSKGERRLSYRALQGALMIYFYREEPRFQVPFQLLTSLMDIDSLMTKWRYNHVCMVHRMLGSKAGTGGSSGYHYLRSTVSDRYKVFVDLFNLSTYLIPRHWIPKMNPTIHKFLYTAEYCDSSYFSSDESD

| SMILES | IC50 |
| --- | --- |
| CC(=O)N(C)CC1NS(=O)(=O)c2ccc(-c3c[nH]c4cc(F)ccc34)cc21 (single isomer, unassigned; (-)) [Example 28, (−)-N-((5-(6-fluoro-1H-indol-3-yl)-1,1-dioxido-2,3-dihydrobenzo[d]isothiazol-3-yl)methyl)-N-methylacetamide] | 505 nM |
| O=S1(=O)c2ccc(-c3c[nH]c4cc(F)ccc34)cc2CN1CCO [Example 33, 5-(6-fluoro-1H-indol-3-yl)-2-(2-hydroxyethyl)-2,3-dihydrobenzo[d]isothiazole 1,1-dioxide] | 89 nM |
| CC(C)C1NS(=O)(=O)c2ccc(-c3c[nH]c4cc(F)ccc34)cc21 (single isomer, unassigned; (-)) [Example 9, (−)-5-(6-fluoro-1H-indol-3-yl)-3-isopropyl-2,3-dihydrobenzo-[d]isothiazole 1,1-dioxide] | 82 nM |
| O=S1(=O)NC(C2CC2)c2cc(-c3c[nH]c4cc(F)ccc34)ccc21 (single isomer, unassigned; (-)) [Example 11, (−)-3-cyclopropyl-5-(6-fluoro-1H-indol-3-yl)-2,3-dihydrobenzo[d]isothiazole 1,1-dioxide] | 103 nM |
| CNC(=O)CCN1Cc2cc(-c3c[nH]c4cc(F)ccc34)ccc2S1(=O)=O [Example 43, 3-(5-(6-fluoro-1H-indol-3-yl)-1,1-dioxidobenzo[d]isothiazol-2(3H)-yl)-N-methylpropanamide] | 136 nM |
| CC(=O)N(C)CC1NS(=O)(=O)c2ccc(-c3c[nH]c4cc(F)ccc34)cc21 (single isomer, unassigned; (+)) [Example 27, (+)-N-((5-(6-fluoro-1H-indol-3-yl)-1,1-dioxido-2,3-dihydrobenzo[d]isothiazol-3-yl)methyl)-N-methylacetamide] | 226 nM |
| CN1CCC(N2Cc3cc(-c4c[nH]c5cc(F)ccc45)ccc3S2(=O)=O)CC1 [Example 37, 5-(6-fluoro-1H-indol-3-yl)-2-(1-methylpiperidin-4-yl)-2,3-dihydrobenzo[d]isothiazole 1,1-dioxide] | 196 nM |
| NCC1NS(=O)(=O)c2ccc(-c3c[nH]c4cc(F)ccc34)cc21 (single isomer, unassigned; (+)) [Example 19, (+)-3-(aminomethyl)-5-(6-fluoro-1H-indol-3-yl)-2,3-dihydrobenzo[d]isothiazole 1,1-dioxide] | 311 nM |
| CC1c2cc(-c3c[nH]c4cc(F)ccc34)ccc2S(=O)(=O)N1CCC(N)=O (single isomer, unassigned; (-)) [Example 48, (−)-3-(5-(6-fluoro-1H-indol-3-yl)-3-methyl-1,1-dioxidobenzo[d]isothiazol-2(3H)-yl)propanamide] | 77 nM |
| NCC1NS(=O)(=O)c2ccc(-c3c[nH]c4cc(F)ccc34)cc21 (single isomer, unassigned; (-)) [Example 20, (−)-3-(aminomethyl)-5-(6-fluoro-1H-indol-3-yl)-2,3-dihydrobenzo[d]isothiazole 1,1-dioxide] | 430 nM |
| CC1c2cc(-c3c[nH]c4cc(F)ccc34)ccc2S(=O)(=O)N1CCC(N)=O (single isomer, unassigned; (+)) [Example 47, (+)-3-(5-(6-fluoro-1H-indol-3-yl)-3-methyl-1,1-dioxidobenzo[d]isothiazol-2(3H)-yl)propanamide] | 199 nM |
| CCC1NS(=O)(=O)c2ccc(-c3c[nH]c4cc(F)ccc34)cc21 (single isomer, unassigned; (+)) [Example 3, (+)-3-ethyl-5-(6-fluoro-1H-indol-3-yl)-2,3-dihydrobenzo[d]-isothiazole 1,1-dioxide] | 64 nM |

Other lines, results leading:

| IC50 | SMILES |
| --- | --- |
| 91 nM | CC1c2cc(-c3c[nH]c4cc(F)ccc34)ccc2S(=O)(=O)N1C1CCNC(=O)C1 (single isomer, unassigned; (+)) [Example 120] |
| 830 nM | O=S1(=O)c2ccc(-c3c[nH]c4cc(F)ccc34)cc2C(CO)N1CC(O)CO (single isomer, unassigned; (+)) [Example 141, (+)-2-(2,3-dihydroxypropyl)-5-(6-fluoro-1H-indol-3-yl)-3-(hydroxymethyl)-2,3-dihydrobenzo[d]isothiazole 1,1-dioxide] |
| 56 nM | CC1c2cc(-c3c[nH]c4cc(F)ccc34)ccc2S(=O)(=O)N1CC1CCN(C)CC1 (single isomer, unassigned; (+)) [Example 80, (+)-5-(6-fluoro-1H-indol-3-yl)-3-methyl-2-((1-methylpiperidin-4-yl)methyl)-2,3-dihydrobenzo[d]isothiazole 1,1-dioxide] |
| 267 nM | CC1c2cc(-c3c[nH]c4cc(F)ccc34)ccc2S(=O)(=O)N1CC[S+](C)[O-] (single isomer, unassigned; (+)) [Example 58, (+)-5-(6-fluoro-1H-indol-3-yl)-3-methyl-2-(2-(methylsulfinyl)ethyl)-2,3-dihydrobenzo[d]isothiazole 1,1-dioxide] |
| 186 nM | CC1c2cc(-c3c[nH]c4cc(F)ccc34)ccc2S(=O)(=O)N1C1CCNCC1 (single isomer, unassigned; (-)) [Example 51, (−)-5-(6-fluoro-1H-indol-3-yl)-3-methyl-2-(piperidin-4-yl)-2,3-dihydrobenzo[d]isothiazole 1,1-dioxide] |
| 389 nM | CC1c2cc(-c3c[nH]c4cc(F)ccc34)ccc2S(=O)(=O)N1C[C@@]1(C)CCC(=O)N1 (single isomer, unassigned; (-)) [Example 84] |
| 182 nM | O=S1(=O)c2ccc(-c3c[nH]c4cc(F)ccc34)cc2C(CO)N1CCO (single isomer, unassigned; (+)) [Example 131, (+)-5-(6-fluoro-1H-indol-3-yl)-2-(2-hydroxyethyl)-3-(hydroxymethyl)-2,3-dihydrobenzo[d]isothiazole 1,1-dioxide] |
| 190 nM | O=S1(=O)c2ccc(-c3c[nH]c4cc(F)ccc34)cc2C(CO)N1CC(O)CO (single isomer, unassigned; (+)) [Example 144, (+)-2-(2,3-dihydroxypropyl)-5-(6-fluoro-1H-indol-3-yl)-3-(hydroxymethyl)-2,3-dihydrobenzo[d]isothiazole 1,1-dioxide] |
| 97 nM | CC1c2cc(-c3c[nH]c4cc(F)ccc34)ccc2S(=O)(=O)N1Cc1ncn(C)n1 (single isomer, unassigned; (+)) [Example 86, (+)-5-(6-fluoro-1H-indol-3-yl)-3-methyl-2-((1-methyl-1H-1,2,4-triazol-3-yl)methyl)-2,3-dihydrobenzo[d]isothiazole 1,1-dioxide] |
| 91 nM | CC1c2cc(-c3c[nH]c4cc(F)ccc34)ccc2S(=O)(=O)N1CCC(=O)N1CCNCC1 (single isomer, unassigned; (+)) [Example 49, (+)-3-(5-(6-fluoro-1H-indol-3-yl)-3-methyl-1,1-dioxido-benzo [d]isothiazol-2(3H)-yl)-1-(piperazin-1-yl)propan-1-one] |
| 383 nM | CC1c2cc(-c3c[nH]c4cc(F)ccc34)ccc2S(=O)(=O)N1CCc1n[nH]c(=O)o1 (single isomer, unassigned; (-)) [Example 133, (−)-5-(2-(5-(6-fluoro-1H-indol-3-yl)-3-methyl-1,1-dioxidobenzo[d]isothiazol-2(3H)-yl)ethyl)-1,3,4-oxadiazol-2(3H)-one] |
| 61 nM | CC1c2cc(-c3c[nH]c4cc(F)ccc34)ccc2S(=O)(=O)N1C[C@]1(C)CCC(=O)N1 (single isomer, unassigned; (+)) [Example 82] |
| 68 nM | CC1c2cc(-c3c[nH]c4cc(F)ccc34)ccc2S(=O)(=O)N1C1CNC(=O)C1 (single isomer, unassigned; (-)) [Example 124, (−)-4-(5-(6-fluoro-1H-indol-3-yl)-3-methyl-1,1-dioxido-benzo[d]isothiazol-2(3H)-yl)pyrrolidin-2-one] |
| 59 nM | CNC(=O)C(C)N1C(C)c2cc(-c3c[nH]c4cc(F)ccc34)ccc2S1(=O)=O (single isomer, unassigned) [Example 147, 2-(5-(6-fluoro-1H-indol-3-yl)-3-methyl-1,1-dioxidobenzo[d]isothiazol-2(3H)-yl)-N-methylpropanamide] |
| 54 nM | CC1c2cc(-c3c[nH]c4cc(F)ccc34)ccc2S(=O)(=O)N1C1CCNC(=O)C1 (single isomer, unassigned; (-)) [Example 122, (−)-4-(-5-(6-fluoro-1H-indol-3-yl)-3-methyl-1,1-dioxidobenzo[d]isothiazol-2(3H)-yl)piperidin-2-one] |
| 174 nM | CC1c2cc(-c3c[nH]c4cc(F)ccc34)ccc2S(=O)(=O)N1CC1CCNCC1 (single isomer, unassigned; (+)) [Example 78, (+)-5-(6-fluoro-1H-indol-3-yl)-3-methyl-2-(piperidin-4-ylmethyl)-2,3-dihydrobenzo[d]isothiazole 1,1-dioxide] |
| 546 nM | CC1c2cc(-c3c[nH]c4cc(F)ccc34)ccc2S(=O)(=O)N1CCN1CCNCC1=O (single isomer, unassigned; (-)) [Example 65, (−)1-(2-(5-(6-fluoro-1H-indol-3-yl)-3-methyl-1,1-dioxidobenzo[d]isothiazol-2(3H)-yl)ethyl)piperazin-2-one] |
